Laboratory results published in US20220395464A1, “ORALLY ADMINISTERED SOLID DOSAGE FORM DRUG” (ASCENTAWITS PHARMACEUTICALS, LTD., priority 2019, published 2022).
“Also recorded” adds a separate entry of the source. Where two headings read alike, the source gives them in different places.

Tests used:
[1] = Solution stability study of AST-3424 in different solutions (HPLC content); format: physicochemical; conditions: for Time the API is stable in solution / Content: room temperature
Description: 1.3 Solution Stability Study
About 107.32 mg of AST-3424 (50% v/v, ethanol) was taken and placed in a 50 ml-measuring flask. Then, solvents which are an organic solvent, buffer solution or purified water, were respectively added to a scale mark. At each appointed time, 1 ml of samples was measured for HPLC analysis respectively. If the API was stable in the solution with the different pH values, a sampling appointed time was extended, for instance 5 days or more.
In the solubility study, for a determination of sample contents, 1 ml of culture medium were measured respectively, and then centrifuged at 1000 rpm for 10 minutes. Subnatant after centrifugation were collected respectively for HPLC analysis. In the solution stability study, the samples may be provided directly for HPLC analysis.
The contents were determined by a HPLC method: AST-3424 was used as an external standard for quantification.
A wavelength of UVDAD detector was 230 nm. C18 column was used at a temperature of 25° C.

[2] = tested on: H460 non-small cell lung cancer; conditions: cited from earlier work
[3] = tested on: H460 non-small cell lung cancer; experiment: In vitro proliferation inhibition assay, 2 h exposure, Alamar Blue, with or without AKR1C3 inhibitor TH3021; format: cell-based, human; conditions: for IC50: 2 h exposure, 70 h further incubation
Description: The activities of the compounds were evaluated by a proliferation inhibition assay of active cancer cells in vitro.
In vitro proliferation data for a human tumor cell line of H460 non-small cell lung cancer were reported in a Table of compounds below.
IC50 values were in nanomoles and were obtained by the following procedure. Cells were exposed in the compounds with different concentration for 2 hours. Next, the compounds were washed off, and fresh medium was added into plates. Afterwards, a growth rate and a cell-survival rate were obtained by cell staining and compared with a control treated with the medium only.
Specifically speaking, the exponentially growing cells were seeded in 96-well plates at a density of 4×10^3 cells/well, and incubated for 24 hours at 37° C. in 5% CO2, 95% air and 100% relative humidity. Next, the compounds were added. Complementary, the compounds were dissolved in 100% DMSO at 200 times a desired final test concentration. The compounds were further diluted to 4 times the desired final test concentration with complete medium when the drug was added. A 50 μl aliquot of drug with the specific concentrations of the compounds was added to the 96-well plates already containing 150 μl of medium respectively to get the final test concentration reported. After the drug was added, the 96-well plates were incubated for 2 hours at 37° C. in 5% CO2, 95% air and 100% relative humidity. Then, the drug was washed off, and the 96-well plates were incubated for 70 hours at 37° C. in 5% CO2, 95% air and 100% relative humidity after adding the fresh medium. At the end of this incubation, Alamar Blue assay was used to quantify viable cells. The concentrations of the drug causing 50% growth inhibition (IC50) were calculated using computer software, and results are presented in a table below.
A cancer cell proliferation activity of the compounds with or without AKR1C3 enzyme inhibition was measured with and without adding TH3021 (with a sufficient inhibitory concentration), an inhibitor of AKR1C3.

## C[C@H](OP(=O)(N1CC1)N1CC1)c1ccc([N+](=O)[O-])c(Oc2cccc(C(=O)N(C)C)c2)c1 [AST-3424, (S)-1-(3-(3-N,N-Dimethylaminocarbonyl)phenoxy-4-nitrophenyl)-1-ethyl-N,N′-bis(ethylene) phosphoramidate]
[1]; 1:1 solution of ethanol and propylene glycol
  Time the API is stable in solution: at least 72 hours
[1]; Acetate buffer of pH 4.5, 0 h
  Content: 0.673 mg/mL
[1]; Acetate buffer of pH 4.5, 1 h
  Content: 0.413 mg/mL
[1]; Acetate buffer of pH 4.5, 4 h
  Content: 0.218 mg/mL
[1]; Acetate buffer of pH 4.5, 8 h
  Content: 0.093 mg/mL
[1]; Acetate buffer of pH 4.5, 24 h
  Content: 0.013 mg/mL
[1]; Alkaline borate buffer of pH 10.0, 0 h
  Content: 1.265 mg/mL
[1]; Alkaline borate buffer of pH 10.0, 1 h
  Content: 1.165 mg/mL
[1]; Alkaline borate buffer of pH 10.0, 4 h
  Content: 1.261 mg/mL
[1]; Alkaline borate buffer of pH 10.0, 8 h
  Content: 1.258 mg/mL
[1]; Alkaline borate buffer of pH 10.0, 24 h
  Content: 1.261 mg/mL
[1]; Alkaline borate buffer of pH 10.0, 48 h
  Content: 1.257 mg/mL
[1]; Alkaline borate buffer of pH 10.0, 72 h
  Content: 1.242 mg/mL
[1]; Ethanol/Propylene glycol (50:50, v/v), 0 h
  Content: 1.295 mg/mL
[1]; Ethanol/Propylene glycol (50:50, v/v), 1 h
  Content: 1.287 mg/mL
[1]; Ethanol/Propylene glycol (50:50, v/v), 4 h
  Content: 1.287 mg/mL
[1]; Ethanol/Propylene glycol (50:50, v/v), 8 h
  Content: 1.287 mg/mL
[1]; Ethanol/Propylene glycol (50:50, v/v), 24 h
  Content: 1.302 mg/mL
[1]; Ethanol/Propylene glycol (50:50, v/v), 48 h
  Content: 1.284 mg/mL
[1]; Ethanol/Propylene glycol (50:50, v/v), 72 h
  Content: 1.275 mg/mL
[1]; Ethanol, 0 h
  Content: 1.238 mg/mL
[1]; Ethanol, 1 h
  Content: 1.280 mg/mL
[1]; Ethanol, 4 h
  Content: 1.246 mg/mL
[1]; Ethanol, 8 h
  Content: 1.240 mg/mL
[1]; Ethanol, 24 h
  Content: 1.240 mg/mL
[1]; Ethanol, 48 h
  Content: 1.278 mg/mL
[1]; Ethanol, 72 h
  Content: 1.236 mg/mL
[1]; Phosphate buffer of pH 6.8, 0 h
  Content: 1.202 mg/mL
[1]; Phosphate buffer of pH 6.8, 1 h
  Content: 1.200 mg/mL
[1]; Phosphate buffer of pH 6.8, 4 h
  Content: 1.193 mg/mL
[1]; Phosphate buffer of pH 6.8, 8 h
  Content: 1.185 mg/mL
[1]; Phosphate buffer of pH 6.8, 24 h
  Content: 1.168 mg/mL
[1]; Phosphate buffer of pH 6.8, 48 h
  Content: 1.145 mg/mL
[1]; Phosphate buffer of pH 6.8, 72 h
  Content: 1.102 mg/mL
[1]; Phosphate buffer of pH 7.4, 0 h
  Content: 1.267 mg/mL
[1]; Phosphate buffer of pH 7.4, 1 h
  Content: 1.266 mg/mL
[1]; Phosphate buffer of pH 7.4, 4 h
  Content: 1.266 mg/mL
[1]; Phosphate buffer of pH 7.4, 8 h
  Content: 1.262 mg/mL
[1]; Phosphate buffer of pH 7.4, 24 h
  Content: 1.262 mg/mL
[1]; Phosphate buffer of pH 7.4, 48 h
  Content: 1.249 mg/mL
[1]; Phosphate buffer of pH 7.4, 72 h
  Content: 1.228 mg/mL
[1]; Purified water, 0 h
  Content: 1.186 mg/mL
[1]; Purified water, 1 h
  Content: 1.126 mg/mL
[1]; Purified water, 4 h
  Content: 1.056 mg/mL
[1]; Purified water, 8 h
  Content: 1.005 mg/mL
[1]; Purified water, 24 h
  Content: 0.918 mg/mL
[1]; Purified water, 48 h
  Content: 0.860 mg/mL
[1]; Purified water, 72 h
  Content: 0.810 mg/mL
[1]; acetate buffer of pH 4.5
  Solution stability, in words: unstable; also recorded: very unstable
[1]; buffer of pH 7.4
  Time the API is stable in solution: at least 72 hours
[1]; buffer of pH 10.0
  Time the API is stable in solution: at least 72 hours
[1]; ethanol
  Time the API is stable in solution: at least 72 hours
[1]; phosphate buffer of pH 6.8
  Solution stability, in words: unstable; also recorded: less stable
[1]; phosphate buffer of pH 7.4
  Solution stability, in words: stable
[1]; purified water
  Solution stability, in words: unstable; also recorded: less stable
[1]; solution of pH 6.8
  Time the API is stable in solution: at least 24 hours
[2]; + TH3021 (inhibitor of AKR1C3), (Reference)
  IC50: 141 nM
[2]; without TH3021, (Reference)
  IC50: < 4.57 nM

## [2H]C([2H])([2H])N(C(=O)c1cccc(Oc2cc([C@H](C)OP(=O)(N3CC3)N3CC3)ccc2[N+](=O)[O-])c1)C([2H])([2H])[2H] [AST-3424-D6]
[3]; H460, + TH3021 (inhibitor of AKR1C3)
  IC50: 165 nM
[3]; H460, FIG. 1 and Table 12
  In vitro activity compared with AST-3424, in words: similar
[3]; Homo sapiens, NCI-H460, H460, + TH3021 (inhibitor of AKR1C3)
  IC50: 109 nM
[3]; Homo sapiens, NCI-H460, H460, without TH3021
  IC50: < 4.57 nM
